Experimental findings from patent EP0246061A2, “A benzoylurea derivative and its production and use” (SUMITOMO CHEMICAL COMPANY, LIMITED, priority 1986, dated 1987) are described below.

Like-named read-outs stand apart in the source and are kept apart here.

Format in all cases: in vivo
Experiment [1] relates to rice stem borer (Chilo suppressalis). Put plainly: Mortality test on 10-day old larvae of rice stem borer on treated artificial diet (Test example 3). The note with it: 192 h, 67,000-fold dilution (1.5 ppm), 1 ml on 5 g artificial diet, ten 10-day old larvae, after eight days, two replications. From the text:
Then, ten 10-day old larvae of rice stem borer were liberated therein. After eight days, the dead and alive were examined to obtain mortality (two replications).

For experiment [2], the system named is tobacco cutworm (Spodoptera litura). Put plainly: Mortality test on fourth instar larvae of tobacco cutworm on treated artificial diet (Test example 2). The following applies: 144 h; for mortality at 0.5 ppm: read-out: Concentration and mortality (%) 0.5 ppm; for mortality at […]: in Nicotiana tabacum, read-out: Concentration and mortality (%) […], 1.5 ppm, 2 ml on 13 g artificial diet, ten fourth instar larvae, after six days, two replications. As to the method:
The emulsifiable concentrates of the following present compounds and controls prepared according to Formulation example 1 were each diluted with water to a prescribed concentration, and 2 ml of the aqueous dilute solution thus obtained was applied onto 13 g of artificial diet for tobacco cutworm (Spodoptera litura) which were then put in a polyethylene cup of 11 cm in diameter. Then, ten fourth instar larvae of tobacco cutworm were liberated therein. After six days, the dead and alive were examined to obtain mortality (two replications).

The subject of experiment [3] is common mosquito (Culex pipiens pallens). Briefly: Emergence inhibition test on last instar larvae of common mosquito in aqueous dilute solution (Test example 1). The note with it: active ingredient concentration 3.5 ppm in water; 20 last instar larvae; bred until emergence; two replications. The method, then:
The emulsifiable concentrates of the following present compounds prepared according to Formulation example 1 were each diluted with water so that the active ingredient concentration was 3.5 ppm. Thereafter, 100 ml of the aqueous dilute solution thus obtained was put in a 180-ml polyethylene cup, and 20 last instar larvae of common mosquito (Culex pipiens pallens) were liberated therein. The larvae were bred on a bait until emergence to obtain an emergence inhibitory ratio (two replications).

Experiment [4] concerns diamond-back moth (Plutella xylostella) of a field strain. Briefly: Emergence inhibition test on third instar larvae of diamond-back moth, cabbage leaf dipping (Test example 4). The following applies: 200,000-fold dilution (0.5 ppm); cabbage leaf dipped 1 minute; ten third instar larvae; after nine days; corrected against untreated plot; two replications. The method, then:
A circular cabbage leaf of 9.0 cm in diameter was dipped for 1 minute in the 200,000-fold aqueous dilute solutions each (corresponding to 0.5 ppm) of emulsifiable concentrates prepared from the following present compounds and controls according to Formulation example 1. After air-drying, the leaf was put in a polyethylene cup of 11 cm in diameter in which a filter paper was placed on the bottom, and ten third instar larvae of diamond-back moth (Plutella xylostella) of a field strain were liberated therein. After nine days, the number of emergence was examined to obtain an emergence inhibitory ratio (two replications).

The mark [5] stands for this setting: 0.5 ppm, 2 ml on 13 g artificial diet, ten fourth instar larvae, after six days, two replications.

Consider `O=C(NC(=O)c1c(F)cccc1F)Nc1ccc(C(F)(F)C(F)(F)F)cc1F` [(9), N-2,6-difluorobenzoyl-Nʹ-2-fluoro-4-pentafluoroethylphenylurea], for which the mortality at […] was 90% in experiment [1] and 100% in experiment [2]. Also, the mortality at 0.5 ppm in experiment [2] (setting [5]) came out at 100%. Moreover, the “Emergence inhibitory ratio (%)” value in experiment [3] and in experiment [4] was 100% in each case.

Turning to `O=C(NC(=O)c1c(F)cc(F)cc1F)Nc1cc(F)c(C(F)(F)F)cc1F` [(3), N-2,4,6-trifluorobenzoyl-Nʹ-2,5-difluoro-4-trifluoromethylphenylurea], the mortality at […] in experiment [1] worked out at 90%; in experiment [2], 100%. Further, the mortality at 0.5 ppm in experiment [2] (setting [5]) amounted to 100%. Besides, the “Emergence inhibitory ratio (%)” value amounted to 100% in experiment [3] and 89% in experiment [4].

As for `O=C(NC(=O)c1c(F)cccc1F)Nc1cc(Cl)c(F)c(Cl)c1F` [(C), Teflubenzuron, reference compound], the mortality at 0.5 ppm in experiment [2] stood at 20%. Moreover, the “Emergence inhibitory ratio (%)” value in experiment [4] worked out at 33%.

With `O=C(NC(=O)c1c(F)cccc1F)Nc1ccc(C(F)(F)F)cc1F` [(1), N-2,6-difluorobenzoyl-Nʹ-2-fluoro-4-trifluoromethylphenylurea], the mortality at […] in experiment [1] was determined as 90%; in experiment [2], 100%. In experiment [2] (setting [5]), the mortality at 0.5 ppm is 80%. The “Emergence inhibitory ratio (%)” value in experiment [3] and in experiment [4] was 100% in each case.

Consider `O=C(NC(=O)c1c(F)cc(F)cc1F)Nc1ccc(C(F)(F)C(F)(F)F)cc1F` [(10), N-2,4,6-trifluorobenzoyl-Nʹ-2-fluoro-4-pentafluoroethylphenylurea], for which the mortality at […] in experiment [1] came out at 80%; in experiment [2] it was 100%. Moreover, in experiment [2] (setting [5]), the mortality at 0.5 ppm was found to be 100%. Besides, the “Emergence inhibitory ratio (%)” value in experiment [3] and in experiment [4] was 100% throughout.

On to `O=C(NC(=O)c1c(F)cccc1F)Nc1cc(F)c(C(F)(F)C(F)(F)C(F)(F)F)cc1F` [(7), N-2,6-difluorobenzoyl-Nʹ-2,5-difluoro-4-heptafluoropropylphenylurea], for which the mortality at […] in experiment [1] and in experiment [2] was 100% in each case. Moreover, the mortality at 0.5 ppm in experiment [2] (setting [5]) is 100%. Further, the “Emergence inhibitory ratio (%)” value in experiment [3] and in experiment [4] was 100% in each case.

Regarding `O=C(NC(=O)c1c(F)cccc1F)Nc1cc(Cl)c(C(F)(F)F)cc1F` [(4), N-2,6-difluorobenzoyl-Nʹ-5-chloro-2-fluoro-4-trifluoromethylphenylurea], the mortality at […] in experiment [1] and in experiment [2] was 100% throughout. For the same compound, in experiment [2] (setting [5]), the mortality at 0.5 ppm was 70%. Also, the results for the “Emergence inhibitory ratio (%)” value in experiment [3] and in experiment [4] were 100% and 89%, respectively.

Take `O=C(NC(=O)c1c(F)cc(F)cc1F)Nc1cc(F)c(C(F)(F)C(F)(F)C(F)(F)F)cc1F` [(8), N-2,4,6-trifluorobenzoyl-Nʹ-2,5-difluoro-4-heptafluoropropylphenylurea]: the mortality at […] in experiment [1] came out at 80%. The “Emergence inhibitory ratio (%)” value in experiment [3] worked out at 100%; in experiment [4], 73%.

Turning to `O=C(NC(=O)c1c(F)cccc1F)Nc1cc(Cl)cc(C(F)(F)F)c1Cl` [(F), reference compound], the mortality at […] in experiment [1] was determined as 10%; in experiment [2], 60%. Besides, in experiment [2] (setting [5]), the mortality at 0.5 ppm turned out to be 20%. Besides, in experiment [4], the “Emergence inhibitory ratio (%)” value was 22%.

Regarding `CNC(=O)ON=C(C)SC` [(D), Methomyl, reference compound], the mortality at […] in experiment [1] was found to be 5%; in experiment [2] it was 10%. In experiment [2] (setting [5]), the mortality at 0.5 ppm is 0%. Moreover, in experiment [4], the “Emergence inhibitory ratio (%)” value stood at 0%.

Regarding `O=C(NC(=O)c1c(F)cccc1F)Nc1ccc(Cl)cc1` [(A), Diflubenzuron, reference compound], in experiment [2], the mortality at 0.5 ppm was 5%. The “Emergence inhibitory ratio (%)” value in experiment [4] is recorded as 11%.

Take `O=C(NC(=O)c1c(F)cccc1F)Nc1cc(F)c(C(F)(F)F)cc1F` [(2), N-2,6-difluorobenzoyl-Nʹ-2,5-difluoro-4-trifluoromethylphenylurea]: the mortality at […] in experiment [1] and in experiment [2] was 100% throughout. Besides, in experiment [2] (setting [5]), the mortality at 0.5 ppm worked out at 100%. Also, the “Emergence inhibitory ratio (%)” value in experiment [3] and in experiment [4] was 100% in each case.

`O=C(NC(=O)c1c(F)cccc1F)Nc1cc(F)c(C(F)(F)C(F)(F)F)cc1F` [(6), N-2,6-difluorobenzoyl-Nʹ-2,5-difluoro-4-pentafluoroethylphenylurea]: the mortality at […] in experiment [1] was determined as 80%; in experiment [2], 100%. Moreover, the mortality at 0.5 ppm in experiment [2] (setting [5]) turned out to be 100%. The “Emergence inhibitory ratio (%)” value in experiment [3] and in experiment [4] was 100% each time.

On to `O=C(NC(=O)c1c(F)cc(F)cc1F)Nc1ccc(C(F)(F)F)cc1F` [(5), N-2,4,6-trifluorobenzoyl-Nʹ-2-fluoro-4-trifluoromethylphenylurea], for which the mortality at […] in experiment [1] and in experiment [2] was 100% throughout. In addition, the mortality at 0.5 ppm in experiment [2] (setting [5]) turned out to be 100%. In addition, the “Emergence inhibitory ratio (%)” value in experiment [3] and in experiment [4] was 100% in each case.

For `O=C(NC(=O)c1c(F)cccc1F)Nc1ccc(Cl)cc1F` [(E), reference compound], the figures for the mortality at […] in experiment [1] and in experiment [2] were 35% and 45%, respectively. Moreover, in experiment [2] (setting [5]), the mortality at 0.5 ppm turned out to be 10%. In addition, the “Emergence inhibitory ratio (%)” value in experiment [4] is given as 33%.
